We go through 4 molecules from article PMC6476959, “Novel 3,4-Dihydroisocoumarins Inhibit Human P-gp and BCRP in Multidrug Resistant Tumors and Demonstrate Substrate Inhibition of Yeast Pdr5” (Frontiers in Pharmacology, 2019).

One data set deals with MCF-7/MX cells. Briefly: CellTiter-Glo cell viability assay (cytotoxicity), MCF-7/MX. Format: cell-based. Particulars: Homo sapiens, MCF7/MX; 48 h, BCRP-expressing, mean ± SEM. The method, then:
(§1) The human lung adenocarcinoma cell line A549 was cultured in DMEM medium supplemented with 10% fetal bovine serum (FBS), 100 U/mL penicillin and 100 μg/mL streptomycin. P-gp-expressing human colon adenocarcinoma cells HCT-15 were cultured in RPMI 1640 medium supplemented with 10% FBS, 100 U/mL penicillin and 100 μg/mL streptomycin. BCRP-expressing MCF-7/MX human breast adenocarcinoma cells were cultured in DMEM medium supplemented with 10% FBS, 100 U/mL penicillin and 100 μg/mL streptomycin. MRP1-expressing H69AR human small cell lung cancer cells were cultured in RPMI 1640 medium (ATCC modification) supplemented with 20% FBS, 100 U/mL penicillin and 100 μg/mL streptomycin. All cancer cell lines employed have been systematically characterized regarding their respective ABC transporter expression profile ([Sachs et al., 2019]).
(§2) Cytotoxic activity of test compounds was analyzed after 48 h using the CellTiter-Glo Luminescent Cell Viability Assay published previously ([Weber et al., 2017]) in 384-well plates with the following cell densities: A549, MCF-7/MX: 2 × 10^3 cells/well; HCT-15: 3 × 10^3 cells/well; H69AR: 5 × 10^3 cells/well. Pipetting was conducted with the CyBi-Well 96-channel simultaneous pipettor (Analytik Jena AG, Jena, Germany). For generation of dose-response curves and calculation of IC50 values, the four-parameter logistic model was applied.

The next data set deals with A549 cells. Briefly: CellTiter-Glo cell viability assay (cytotoxicity), A549. Particulars: for IC50: Homo sapiens, A549, 48 h, mean ± SEM. It is filed as cell-based, human. How it is done: as §1, §2
A further data set has as its system HCT-15 cells. Briefly: CellTiter-Glo cell viability assay (cytotoxicity), HCT-15. It is filed as cell-based. Particulars: Homo sapiens, 48 h, P-gp expressing, mean ± SEM. The method, then:
as §1, §2

A further data set has as its target T1, P-gp (Homo sapiens, UniProt P08183).
T1 construct: endogenous in cells; host or cells: HCT-15 human colon adenocarcinoma cells
Briefly: P-gp transport assay (calcein-AM) in HCT-15 cells. It is filed as cell-based. How it is done:
The transport of calcein-AM by P-gp and its modulation by test compounds was analyzed in the P-gp-expressing HCT-15 cell line. 5 × 10^4 cells were seeded in black 96-well plates and incubated at 37°C and 5% CO2 for 24 h. The culture medium was removed and replaced by Hank’s balanced salt solution supplemented with 10 mM HEPES. Test compounds, 2.5 μM PSC833 (positive control) or 0.5% DMSO (negative control) were added in triplicates and incubated for 30 min at 37°C and 5% CO2. The substrate calcein-AM was added (final concentration 0.5 μM) and the fluorescence (excitation 485 nm, emission 520 nm) was measured over 3 h with the Infinite m1000 pro microplate reader (Tecan Group AG, Männedorf, Switzerland) at 37°C. The transport activity of P-gp was analyzed by determining the slope of the linear part of the fluorescence-time curve (0–30 min) using linear regression. Normalization of the data to PSC833 (100% inhibition) and DMSO (0% inhibition) was performed.

The target of a further data set is T2, BCRP (Homo sapiens, UniProt Q9UNQ0).
T2 construct: endogenous in cells; host or cells: MCF-7/MX human breast adenocarcinoma cells (mitoxantrone-selected)
T2 sequence (Q9UNQ0 1-655): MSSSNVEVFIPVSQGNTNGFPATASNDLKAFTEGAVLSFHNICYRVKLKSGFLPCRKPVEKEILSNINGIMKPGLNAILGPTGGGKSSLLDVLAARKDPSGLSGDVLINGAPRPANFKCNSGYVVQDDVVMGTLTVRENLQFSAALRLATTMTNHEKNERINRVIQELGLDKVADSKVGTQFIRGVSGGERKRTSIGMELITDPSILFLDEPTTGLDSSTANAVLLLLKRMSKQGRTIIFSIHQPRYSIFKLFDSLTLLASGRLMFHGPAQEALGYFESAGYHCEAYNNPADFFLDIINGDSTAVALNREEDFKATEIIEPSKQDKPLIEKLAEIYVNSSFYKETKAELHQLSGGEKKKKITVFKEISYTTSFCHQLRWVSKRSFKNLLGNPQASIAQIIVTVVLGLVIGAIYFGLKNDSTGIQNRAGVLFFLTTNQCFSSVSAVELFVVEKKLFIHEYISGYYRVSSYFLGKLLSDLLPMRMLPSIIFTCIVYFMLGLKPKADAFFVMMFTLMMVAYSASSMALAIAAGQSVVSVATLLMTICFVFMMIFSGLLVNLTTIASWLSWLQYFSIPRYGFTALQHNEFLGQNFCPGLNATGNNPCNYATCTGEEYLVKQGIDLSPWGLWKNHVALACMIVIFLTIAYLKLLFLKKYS
Briefly: BCRP transport assay (Hoechst 33342) in MCF-7/MX cells. Format: cell-based. How it is done: Breast cancer resistance protein transport activity was determined in the BCRP-expressing MCF-7/MX cell line. Hoechst 33342 was applied as transporter substrate and 1 μM Ko143 as positive control or 0.5% DMSO as negative control and the assay was performed according to the P-gp assay. Fluorescence was measured at an excitation wavelength of 355 nm and emission wavelength of 460 nm. The transport activity of BCRP was analyzed by determining the plateau of the fluorescence-time curve by using non-linear regression (one-phase exponential fit). Normalization of the data to Ko143 (100% inhibition) and DMSO (0% inhibition) was performed.

The subject of another data set is H69AR cells. Briefly: CellTiter-Glo cell viability assay (cytotoxicity), H69AR. It is filed as cell-based. The settings on record: Homo sapiens, 48 h, MRP1-expressing, mean ± SEM. The method, then: as §1, §2
A general note: In ATP-based viability assays light output follows the ATP content of the culture.

T1 sequence (P08183 whole entry): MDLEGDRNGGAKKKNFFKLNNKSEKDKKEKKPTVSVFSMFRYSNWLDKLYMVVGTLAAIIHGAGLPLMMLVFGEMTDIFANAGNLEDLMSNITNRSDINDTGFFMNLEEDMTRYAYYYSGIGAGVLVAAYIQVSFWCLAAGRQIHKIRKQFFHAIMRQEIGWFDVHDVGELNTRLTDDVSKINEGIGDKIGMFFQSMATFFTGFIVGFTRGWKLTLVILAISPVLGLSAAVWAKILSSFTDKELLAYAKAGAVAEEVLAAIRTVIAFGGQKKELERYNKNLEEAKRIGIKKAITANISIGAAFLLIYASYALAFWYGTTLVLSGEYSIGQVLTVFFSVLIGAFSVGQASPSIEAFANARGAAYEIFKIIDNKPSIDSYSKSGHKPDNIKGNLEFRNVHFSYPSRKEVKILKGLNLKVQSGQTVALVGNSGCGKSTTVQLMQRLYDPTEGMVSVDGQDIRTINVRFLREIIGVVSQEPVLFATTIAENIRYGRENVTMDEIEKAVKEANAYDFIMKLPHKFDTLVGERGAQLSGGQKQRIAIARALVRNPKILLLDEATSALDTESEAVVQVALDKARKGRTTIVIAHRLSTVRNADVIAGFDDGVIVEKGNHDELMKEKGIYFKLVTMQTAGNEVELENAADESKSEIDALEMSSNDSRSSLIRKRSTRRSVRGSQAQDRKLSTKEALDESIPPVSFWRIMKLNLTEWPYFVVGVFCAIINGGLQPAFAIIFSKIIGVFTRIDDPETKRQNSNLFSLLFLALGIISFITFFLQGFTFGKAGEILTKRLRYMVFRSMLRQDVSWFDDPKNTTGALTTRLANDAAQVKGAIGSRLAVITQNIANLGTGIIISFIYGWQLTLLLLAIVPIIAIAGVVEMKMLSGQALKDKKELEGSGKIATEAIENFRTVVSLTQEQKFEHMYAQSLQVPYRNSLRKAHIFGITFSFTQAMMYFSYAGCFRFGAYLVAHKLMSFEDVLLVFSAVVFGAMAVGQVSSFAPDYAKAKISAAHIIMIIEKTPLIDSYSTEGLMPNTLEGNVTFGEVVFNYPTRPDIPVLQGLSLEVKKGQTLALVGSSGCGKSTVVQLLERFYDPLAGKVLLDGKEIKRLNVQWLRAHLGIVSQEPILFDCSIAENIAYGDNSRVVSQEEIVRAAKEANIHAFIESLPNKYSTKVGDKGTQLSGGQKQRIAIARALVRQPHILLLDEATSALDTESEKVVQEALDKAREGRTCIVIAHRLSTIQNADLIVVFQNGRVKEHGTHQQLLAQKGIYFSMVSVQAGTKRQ

As a reminder, the IC50 is the concentration at which inhibition is half-maximal. Lower therefore signals greater potency in that assay. `COc1cc(O)c2c(c1)CCOC2=O` [Compound 14]: the IC50 with MCF-7/MX cells, in the data set on A549 cells, in the data set with HCT-15 cells and with H69AR cells was above 100 µM in each case. For the same molecule, the “Relative inhibition of P-gp, span over the tested concentrations” value at P-gp (different concentrations, normalized to PSC833) is listed as “up to 10%”. Further, the “Inhibition of BCRP (in words)” value on BCRP is on record as “did not inhibit BCRP”.
Regarding `CCCCCC1Cc2cc(OC)cc(O)c2C(=O)O1` (stereo not drawn) [Compound 16], the IC50 with MCF-7/MX cells is above 100 µM; in the data set with A549 cells it was 78.6 ± 2.2 µM; in the data set with HCT-15 cells, above 100 µM; with H69AR cells, 88.5 ± 4.6 µM. Besides, the inhibition at 10 μM on P-gp (human, P-gp-expressing HCT-15 cells, probe calcein-AM (0.5 μM), 10 μM, normalized to 2.5 μM PSC833 (100%) and DMSO (0%), read-out: Relative inhibition of P-gp) was 36.3 ± 5.3%. Further, on P-gp (human, P-gp-expressing HCT-15 cells, probe calcein-AM (0.5 μM), 50 μM, normalized to 2.5 μM PSC833 (100%) and DMSO (0%), read-out: Relative inhibition of P-gp), the inhibition at 50 μM is 81.2 ± 2.7%. For the same molecule, on BCRP (human, BCRP-expressing MCF-7/MX cells, probe Hoechst 33342, 10 μM, normalized to 1 μM Ko143 (100%) and DMSO (0%), read-out: Relative inhibition of BCRP), the inhibition at 3 h, 10 μM was 35.3 ± 3.4%. Further, the inhibition at 3 h, 50 μM at BCRP (human, BCRP-expressing MCF-7/MX cells, probe Hoechst 33342, 50 μM, normalized to 1 μM Ko143 (100%) and DMSO (0%), read-out: Relative inhibition of BCRP) worked out at 89.1 ± 4.6%.
Take `CCCCCC1Cc2cc(OC)cc(OC)c2C(=O)O1` (stereo not drawn) [Compound 16a]: the IC50 is 10.6 ± 0.9 µM with MCF-7/MX cells, 53.6 ± 5.6 µM in the data set on A549 cells, above 100 µM in the data set on HCT-15 cells and above 100 µM in the data set with H69AR cells. Besides, the “fold lower IC50 value than compound 16” value in the data set on A549 cells (A549 cells) is “about 1.5 fold”. The inhibition at 20 μM at P-gp (human, P-gp-expressing HCT-15 cells, probe calcein-AM (0.5 μM), 20 μM, normalized to 2.5 μM PSC833 (100%) and DMSO (0%), read-out: Relative inhibition of P-gp) was above 20%. The inhibition at 3 h on BCRP (human, BCRP-expressing MCF-7/MX cells, probe Hoechst 33342, different concentrations, normalized to Ko143, read-out: Relative inhibition of BCRP, span over the tested concentrations) lay in the range of 2.3 to 14.9%.
As for `COc1cc(O)c2c(c1)C[C@H](C)OC2=O` [Angelicoin B (4), angelicoin B], the IC50 in the data set on MCF-7/MX cells, in the data set on A549 cells, with HCT-15 cells and with H69AR cells was above 100 µM each time. For the same molecule, the “Inhibition of P-gp (in words)” value at P-gp is reported as “did not differ significantly from those of derivative 14”. The “Inhibition of BCRP (in words)” value at BCRP is given as “no inhibitory activity could be observed”.
